pEC50, pIC50: −log10 of the molar value. Values after ≈ are worked out from the molar mass of the structure shown.
What was measured:
[1] = Inhibition of Plasmodium falciparum DHODH expressed in Escherichia coli BL21-DE3 using L-dihydroorotate as substrate by steady-state DCIP method
[2] = Inhibition of Plasmodium vivax DHODH expressed in Escherichia coli BL21-DE3 using L-dihydroorotate as substrate by steady-state DCIP method
[3] = target: Dihydroorotate dehydrogenase (quinone), mitochondrial (Rattus norvegicus, UniProt Q63707); assay: Inhibition of rat DHODH up to 100 uM; conditions: up to 100 µM
[4] = target: Dihydroorotate dehydrogenase (quinone), mitochondrial (Mus musculus, UniProt O35435); assay: Inhibition of mouse DHODH up to 100 uM; conditions: up to 100 µM
[5] = Inhibition of dog DHODH up to 100 uM; parameters: species or system Canis lupus familiaris; conditions: up to 100 µM
L1210 = assay: Cytotoxicity against mouse L1210 cells; assay type: cell-based
HepG2 = assay: Cytotoxicity against human HepG2 cells; assay type: cell-based
Albumin = Albumin (Bos taurus, UniProt P02769); assay: Binding affinity to bovine serum albumin by Albumax assay; assay type: ADME; conditions: cattle, isolated protein
[6] = Binding affinity to microsome (unknown origin); assay type: ADME; conditions: microsomes
[7] = Intrinsic clearance in mouse liver microsomes at 1 uM measured up to 4 hrs by LC-MS analysis; assay type: ADME, Microsome
[8] = Unbound intrinsic clearance in mouse liver microsomes at 1 uM measured up to 4 hrs by LC-MS analysis; assay type: ADME, Microsome
[9] = Half life in Swiss mouse at 20 mg/kg, po measured up to 24 hrs by LC-MS analysis; assay type: ADME, organism-based; conditions: in vivo
[10] = Tmax in Swiss mouse at 20 mg/kg, po measured up to 24 hrs by LC-MS analysis; assay type: ADME, organism-based; conditions: in vivo
[11] = Cmax in Swiss mouse at 20 mg/kg, po measured up to 24 hrs by LC-MS analysis; assay type: ADME, organism-based; parameters: route oral, dose 20 mg/kg, time <=24; conditions: in vivo
[12] = AUC (0 to infinity) in Swiss mouse at 20 mg/kg, po measured up to 24 hrs by LC-MS analysis; assay type: ADME, organism-based; parameters: route oral, dose 20 mg/kg, time <=24; conditions: in vivo
[13] = Plasma clearance in Sprague-Dawley rat at […], iv measured up to 24 hrs; assay type: ADME, organism-based; conditions: dose 2.9 mg/kg
[14] = Volume of distribution at steady state in Sprague-Dawley rat at […], iv measured up to 24 hrs; assay type: ADME, organism-based; conditions: in vivo, dose 2.9 mg/kg, read-out: Vdss
[15] = Apparent half life in Sprague-Dawley rat at 31 mg/kg, po measured up to 24 hrs; assay type: ADME, organism-based; conditions: in vivo, read-out: t1/2(app) (converted)
[16] = Tmax in Sprague-Dawley rat at 31 mg/kg, po measured up to 24 hrs; assay type: ADME, organism-based; conditions: in vivo
[17] = Cmax in Sprague-Dawley rat at 31 mg/kg, po measured up to 24 hrs; assay type: ADME, organism-based; parameters: route oral, dose 31 mg/kg, time <=24; conditions: in vivo
[18] = AUC (0 to infinity) in Sprague-Dawley rat at 31 mg/kg, po measured up to 24 hrs; assay type: ADME, organism-based; parameters: route oral, dose 31 mg/kg, time <=24; conditions: in vivo
[19] = Oral bioavailability in Sprague-Dawley rat at 31 mg/kg measured up to 24 hrs; assay type: ADME, organism-based; conditions: in vivo
Plasmodium falciparum [20] = assay: Antiplasmodial activity against asexual blood stage chloroquine and pyrimethamine-resistant Plasmodium falciparum Dd2 infected in human erythrocytes assessed as parasite killing; assay type: functional, organism-based
Plasmodium falciparum [21] = system: Plasmodium falciparum
Cytochrome P450 2B6 = target: T1, Cytochrome P450 2B6 (Homo sapiens, UniProt P20813)
T1 sequence (P20813 whole entry): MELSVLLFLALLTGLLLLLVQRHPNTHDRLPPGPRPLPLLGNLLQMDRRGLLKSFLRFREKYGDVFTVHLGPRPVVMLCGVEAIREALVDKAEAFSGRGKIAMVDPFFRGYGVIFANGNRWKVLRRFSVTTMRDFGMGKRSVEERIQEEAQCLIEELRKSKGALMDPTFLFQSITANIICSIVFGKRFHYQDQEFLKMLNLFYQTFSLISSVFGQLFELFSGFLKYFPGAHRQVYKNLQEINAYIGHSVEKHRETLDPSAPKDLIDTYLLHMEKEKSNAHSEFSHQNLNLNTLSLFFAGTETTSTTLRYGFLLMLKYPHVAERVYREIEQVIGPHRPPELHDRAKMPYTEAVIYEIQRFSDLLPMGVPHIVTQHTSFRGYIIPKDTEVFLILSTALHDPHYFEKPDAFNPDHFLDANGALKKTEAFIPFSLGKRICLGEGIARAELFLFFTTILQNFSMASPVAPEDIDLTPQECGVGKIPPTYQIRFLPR

Cytochrome P450 2C8 = target: T2, Cytochrome P450 2C8 (Homo sapiens, UniProt P10632)
T2 sequence (P10632 whole entry): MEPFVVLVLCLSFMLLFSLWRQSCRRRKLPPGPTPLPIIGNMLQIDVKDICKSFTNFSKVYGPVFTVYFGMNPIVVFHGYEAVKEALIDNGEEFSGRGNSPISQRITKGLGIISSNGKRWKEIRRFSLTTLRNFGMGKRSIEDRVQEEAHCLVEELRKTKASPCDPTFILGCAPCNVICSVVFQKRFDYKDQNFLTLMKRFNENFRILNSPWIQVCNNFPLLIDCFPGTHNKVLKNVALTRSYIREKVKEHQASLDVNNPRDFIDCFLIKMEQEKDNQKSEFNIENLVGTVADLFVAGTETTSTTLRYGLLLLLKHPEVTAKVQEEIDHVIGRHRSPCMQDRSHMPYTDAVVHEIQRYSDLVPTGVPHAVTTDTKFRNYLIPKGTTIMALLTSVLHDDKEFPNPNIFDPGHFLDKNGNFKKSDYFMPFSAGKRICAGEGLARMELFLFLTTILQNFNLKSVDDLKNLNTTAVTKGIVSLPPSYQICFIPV

Cytochrome P450 3A4 = Cytochrome P450 3A4 (Homo sapiens, UniProt P08684)
[22] = buffer, pH 1.6, 1 h
[23] = simulated gi fluid, pH 6.5, 5 h
[24] = simulated gi fluid, pH 5.8, 5 h
[25] = buffer, pH 7.4, 5 h
[26] = human, plasma
[27] = rat, plasma
[28] = mouse, plasma
in vitro [29] = conditions: rat, blood and plasma
in vitro [30] = conditions: mouse, blood and plasma

Chain of Albumin (P02769 whole entry): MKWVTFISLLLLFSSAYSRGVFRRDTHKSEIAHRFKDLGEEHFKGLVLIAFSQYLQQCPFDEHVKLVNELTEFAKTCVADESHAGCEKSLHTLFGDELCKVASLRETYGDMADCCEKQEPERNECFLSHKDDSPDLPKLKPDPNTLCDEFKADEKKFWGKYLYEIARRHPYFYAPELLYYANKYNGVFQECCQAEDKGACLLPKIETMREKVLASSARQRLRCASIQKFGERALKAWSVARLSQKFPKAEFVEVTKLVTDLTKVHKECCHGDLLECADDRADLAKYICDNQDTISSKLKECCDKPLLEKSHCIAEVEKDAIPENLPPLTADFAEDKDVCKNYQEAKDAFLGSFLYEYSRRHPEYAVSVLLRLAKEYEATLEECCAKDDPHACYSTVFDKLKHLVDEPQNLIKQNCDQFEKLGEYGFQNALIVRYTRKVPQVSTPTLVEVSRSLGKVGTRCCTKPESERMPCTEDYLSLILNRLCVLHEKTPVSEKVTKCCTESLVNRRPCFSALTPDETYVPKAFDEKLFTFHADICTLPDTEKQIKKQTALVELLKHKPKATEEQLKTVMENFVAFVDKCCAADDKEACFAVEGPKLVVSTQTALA
Chain of Dihydroorotate dehydrogenase (quinone), mitochondrial (Mus musculus, UniProt O35435) (O35435 whole entry): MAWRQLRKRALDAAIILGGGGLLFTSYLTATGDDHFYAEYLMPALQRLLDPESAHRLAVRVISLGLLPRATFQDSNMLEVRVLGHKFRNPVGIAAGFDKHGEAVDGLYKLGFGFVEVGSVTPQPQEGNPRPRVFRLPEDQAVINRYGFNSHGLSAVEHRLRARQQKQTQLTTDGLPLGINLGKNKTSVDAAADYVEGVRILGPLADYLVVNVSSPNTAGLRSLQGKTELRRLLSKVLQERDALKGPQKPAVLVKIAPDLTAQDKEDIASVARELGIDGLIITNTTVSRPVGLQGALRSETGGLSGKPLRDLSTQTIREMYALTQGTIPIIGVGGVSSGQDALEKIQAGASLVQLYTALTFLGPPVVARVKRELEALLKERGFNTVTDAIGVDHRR
Chain of Cytochrome P450 3A4 (P08684 whole entry): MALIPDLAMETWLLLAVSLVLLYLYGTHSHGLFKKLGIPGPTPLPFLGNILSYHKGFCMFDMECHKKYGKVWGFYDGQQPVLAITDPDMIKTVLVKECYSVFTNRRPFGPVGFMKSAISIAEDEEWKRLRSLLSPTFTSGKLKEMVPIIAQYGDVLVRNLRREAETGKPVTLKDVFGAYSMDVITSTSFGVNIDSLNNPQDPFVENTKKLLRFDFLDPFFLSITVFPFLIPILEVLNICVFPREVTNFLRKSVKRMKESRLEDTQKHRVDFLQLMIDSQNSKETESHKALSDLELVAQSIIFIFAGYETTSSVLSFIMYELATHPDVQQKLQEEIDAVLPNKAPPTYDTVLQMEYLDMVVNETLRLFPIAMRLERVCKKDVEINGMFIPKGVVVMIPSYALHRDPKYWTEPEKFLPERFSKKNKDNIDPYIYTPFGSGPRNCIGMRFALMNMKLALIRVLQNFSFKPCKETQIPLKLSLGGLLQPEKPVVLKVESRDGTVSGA
Chain of Dihydroorotate dehydrogenase (quinone), mitochondrial (Rattus norvegicus, UniProt Q63707) (Q63707 whole entry): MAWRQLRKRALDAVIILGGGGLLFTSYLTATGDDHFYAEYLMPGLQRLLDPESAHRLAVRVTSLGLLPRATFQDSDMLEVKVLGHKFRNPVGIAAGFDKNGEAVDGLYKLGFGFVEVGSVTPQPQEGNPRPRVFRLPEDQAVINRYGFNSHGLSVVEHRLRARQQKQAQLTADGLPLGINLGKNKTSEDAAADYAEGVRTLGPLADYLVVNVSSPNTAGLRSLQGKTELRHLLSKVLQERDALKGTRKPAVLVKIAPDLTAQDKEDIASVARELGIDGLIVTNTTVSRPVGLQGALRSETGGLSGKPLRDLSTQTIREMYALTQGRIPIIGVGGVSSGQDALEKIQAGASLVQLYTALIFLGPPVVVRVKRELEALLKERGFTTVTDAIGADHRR

Question: Which results are given for `Cc1c(Cc2ccc(C(F)(F)F)nc2)c[nH]c1C(=O)NC(C)c1cn[nH]c1` (stereo in doubt; form 1)?
Answer: pIC50 [1]: 7.33; pIC50 [2]: 7.37; inhibition (INH) [3]: Not Active; inhibition (INH) [4]: Not Active; inhibition (INH) [5]: Not Active; Activity (L1210): Non-Toxic; Activity (HepG2): Non-Toxic; Activity (Albumin): 49.5%; Activity [6]: 40.5%; Intrinsic clearance [7]: 31 µL/min/mg; CL free [8]: 52 µL/min/mg; half-life [9]: 4.4 h; Tmax [10]: 1 h; Cmax [11]: 6.4 µM; AUC(0-inf) [12]: 65 µM·h; clearance at 24 h [13]: 6.2 mL/min/kg; Vd at 24 h [14]: 1.7 L/kg; half-life [15]: 3.4 h; Tmax [16]: 3 h; Cmax [17]: 2.4 µM; AUC(0-inf) [18]: 22 µM·h; bioavailability [19]: 10%; pEC50 (Plasmodium falciparum [20]): 8.62; pEC50 (Plasmodium falciparum [21]): 8.35; IC50 (Cytochrome P450 2B6): > 20 µM; IC50 (Cytochrome P450 2C8): 18.3 µM; TDI (Cytochrome P450 3A4): Active; solubility [22]: 81 µg/mL (≈ 215 µM); solubility [23]: 34 µg/mL (≈ 90.1 µM); solubility [24]: 81 µg/mL (≈ 215 µM); solubility [25]: 23 µg/mL (≈ 60.9 µM); PPB [26]: 84%; PPB [27]: 91.4%; PPB [28]: 92.1%; blood plasma ratio (in vitro [29]): 1.3; blood plasma ratio (in vitro [30]): 1.4

Reference: ChEMBL document CHEMBL4811258, “Potent Antimalarials with Development Potential Identified by Structure-Guided Computational Optimization of a Pyrrole-Based Dihydroorotate Dehydrogenase Inhibitor Series” (J Med Chem, 2021)
